Laboratory results as given in patent US4438117A, “2-Substituted thio-4,5-diarylpyrimidines” (E. I. Du Pont de Nemours and Company, priority 1980, dated 1984).

Legend:
[1] = tested on: Adjuvant-Induced Arthritis in Rats; assay: Established adjuvant-induced arthritis in rats (antiinflammatory activity, paw volume); type: in vivo, Charles River Lewis male rats; details: oral by gavage, that day and 6 following days; for AA % Reduction @ 27 mg/kg: % reduction in paw volume at 27 mg/kg, * p <0.05 (Examples 2, 3, 6), ** p >0.1 (Example 9) compared to control
Procedure: A procedure for detecting and comparing the antiinflammatory activity of compounds in this series and standard drugs for which there is a good correlation with human efficacy is the adjuvant-induced arthritis test in rats.
Charles River Lewis male rats (130-150 grams) are injected subcutaneously in plantar area of the right hind paw with 0.1 ml of adjuvant (Difco heat-killed, lyophilized Mycobacterium butyricum suspended in mineral oil 5 mg/ml). 20 Non-arthritic controls are injected with mineral oil. The animals are held for 2 weeks to allow development of arthritis. Paw volumes (uninjected, left hind paw) are measured and the adjuvant injected rats are culled and distributed to treatment groups of 10 of equal disease severity. Non-arthritic controls are distributed to 2 groups of 10. The rats are given oral doses of compound or PVA-Acacia (Polyvinyl Alcohol 1%, Gum Acacia, U.S.P. 5%, Methylparaben 0.5%) (10 ml/kg) by gavage on that day and on the 6 following days. One day after the last dose the paw volumes (uninjected, left hind paw) are measured using a Ugo Basile Volume Differential Meter Model 7101. [formula]
Dose-response regression lines of the % decrease are plotted on semi-log paper by visual fit and the ED50% decrease from control paw volume is determined by inspection. Alternatively, % reduction in paw volume was measured at a dose of 27 mg/kg.

phenylquinone writhing = assay: Phenylquinone writhing test (analgesic activity); type: in vivo, female white mice; details: Mus musculus; oral in 1% methylcellulose, fasted mice, observed from 30 minutes after dosing for 10 minutes; effective analgesic dose for 50% of the mice; read-out: PQW ED50
Procedure: A procedure for detecting and comparing the analgesic activity of compounds in this series and standard drugs for which there is a good correlation with human efficacy is the phenylquinone writhing test.
The phenylquinone writhing test, modified from Siegmund, et al., Proc. Soc. Exp. Biol. Med. 95, 729 (1957), was employed. A test compound suspended in 1% methylcellulose was given orally to fasted (17-21 hours) female white mice, 5-20 animals per double blind test. Aqueous (0.01% phenyl-p-benzoquinone) phenylquinone was injected intraperitoneally 24 minutes later using 0.20 ml per mouse. […] The effective analgesic dose for 50% of the mice (ED50) was calculated by the moving average method of Thompson, W. R., Bact. Rev., 11, 115-145 (1947).

SMILES	ED50 ([1]; Rattus norvegicus, ED50% decrease from control paw volume, uninjected left hind paw, read-out: AA ED50) [mg/kg]	ED50 (phenylquinone writhing) [mg/kg]	AA % Reduction @ 27 mg/kg [1] [%]
COc1ccc(-c2cnc(SC(F)(F)C(F)F)nc2-c2ccc(OC)cc2)cc1 [Example 1, 2-(1,1,2,2-Tetrafluoroethylthio)-4,5-bis(4-methoxyphenyl)pyrimidine]	25	> 108	
Fc1ccc(-c2cnc(SC(F)(F)F)nc2-c2ccc(F)cc2)cc1 [Example 2, 2-Trifluoromethylthio-4,5-bis(4-fluorophenyl)-pyrimidine]		> 108	37
COc1ccc(-c2nc(SC)ncc2-c2ccc(Cl)cc2)cc1 [Example 3, 2-Methylthio-4-(4-methoxyphenyl)-5-(4-chlorophenyl)-pyrimidine]		> 108	39
Fc1ccc(-c2cnc(SC(F)(F)C(F)F)nc2-c2ccc(F)cc2)cc1 [Example 4]		45	0
COc1ccc(-c2cnc(SC(F)(F)F)nc2-c2ccc(OC)cc2)cc1 [Example 6]		48	32
COc1ccc(-c2nc(SC(F)(F)F)ncc2-c2ccc(Cl)cc2)cc1 [Example 7]		49	0
COc1ccc(-c2cnc(SC)nc2-c2ccc(OC)cc2)cc1 [Example 9]		108	16
